Experimental data published in ChEMBL document CHEMBL4602637, “Synthesis and biological evaluation of novel pyrazolo[1,5-a]pyrimidines: Discovery of a selective inhibitor of JAK1 JH2 pseudokinase and VPS34” (Bioorg Med Chem Lett, 2020).
The source made the active and inactive calls. No cut-off for these calls is given here.

Assays:
[1] = tested on: MCF7; experiment: Ratio of EC50 for dorsomorphin to EC50 for test compound for antimitotic activity against human MCF7 cells by ATP lite luminescence assay; type: functional
[2] = tested on: A2780; experiment: Antimitotic activity against human A2780 cells by ATP lite luminescence assay; type: functional, cell-based
[3] = tested on: A2780; experiment: Antimitotic activity against human A2780 cells at 10 uM by ATP lite luminescence assay; type: functional, cell-based
[4] = tested on: A2780; experiment: Ratio of EC50 for dorsomorphin to EC50 for test compound for antimitotic activity against human A2780 cells by ATP lite luminescence assay; type: functional
[5] = tested on: MCF7; experiment: Antimitotic activity against human MCF7 cells by ATP lite luminescence assay; type: functional, cell-based
[6] = biological target: Non-receptor tyrosine-protein kinase TYK2 (Homo sapiens) (UniProt P29597); experiment: Inhibition of wild-type human partial length TYK2 JH2 pseudokinase domain (G556 to D888 residues) expressed in mammalian expression system assessed as enzyme residual activity at 10 uM by Kinomescan method relative to control
Sequence of Non-receptor tyrosine-protein kinase TYK2 (Homo sapiens) (P29597 whole entry, the tested form may be a part): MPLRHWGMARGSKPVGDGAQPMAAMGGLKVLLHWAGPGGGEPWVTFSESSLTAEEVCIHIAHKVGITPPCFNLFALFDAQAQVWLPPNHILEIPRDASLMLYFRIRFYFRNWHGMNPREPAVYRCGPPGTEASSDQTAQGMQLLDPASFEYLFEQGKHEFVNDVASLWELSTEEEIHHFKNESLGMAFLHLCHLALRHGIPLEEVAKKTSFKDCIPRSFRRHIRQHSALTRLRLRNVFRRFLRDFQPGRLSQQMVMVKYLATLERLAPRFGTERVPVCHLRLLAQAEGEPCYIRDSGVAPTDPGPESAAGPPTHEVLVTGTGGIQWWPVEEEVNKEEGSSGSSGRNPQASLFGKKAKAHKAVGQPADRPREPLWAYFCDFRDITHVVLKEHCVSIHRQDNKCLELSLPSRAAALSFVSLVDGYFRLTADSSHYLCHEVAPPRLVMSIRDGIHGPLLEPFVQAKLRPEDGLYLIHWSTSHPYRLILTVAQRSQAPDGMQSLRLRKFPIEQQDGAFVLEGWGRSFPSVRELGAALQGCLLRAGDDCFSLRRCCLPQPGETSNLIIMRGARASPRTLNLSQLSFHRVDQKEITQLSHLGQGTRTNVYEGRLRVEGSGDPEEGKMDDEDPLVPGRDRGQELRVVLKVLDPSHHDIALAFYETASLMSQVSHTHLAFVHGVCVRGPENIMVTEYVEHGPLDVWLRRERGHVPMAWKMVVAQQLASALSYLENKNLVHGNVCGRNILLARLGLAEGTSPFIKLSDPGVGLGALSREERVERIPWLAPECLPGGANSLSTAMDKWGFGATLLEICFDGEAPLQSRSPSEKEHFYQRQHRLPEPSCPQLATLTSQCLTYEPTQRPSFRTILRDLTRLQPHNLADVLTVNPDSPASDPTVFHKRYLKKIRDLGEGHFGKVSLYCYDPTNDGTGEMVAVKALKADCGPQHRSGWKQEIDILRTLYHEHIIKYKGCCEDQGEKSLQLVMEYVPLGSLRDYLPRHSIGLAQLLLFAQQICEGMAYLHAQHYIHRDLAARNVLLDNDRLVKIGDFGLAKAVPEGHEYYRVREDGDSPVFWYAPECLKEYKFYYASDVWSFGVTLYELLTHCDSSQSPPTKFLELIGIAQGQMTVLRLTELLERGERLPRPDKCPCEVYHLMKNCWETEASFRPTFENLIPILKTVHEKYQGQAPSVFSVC

[7] = biological target: T1, Phosphatidylinositol 3-kinase catalytic subunit type 3 (Homo sapiens, UniProt Q8NEB9); experiment: Inhibition of wild-type human partial length PIK3C3 (S282 to H879 residues) expressed in mammalian expression system assessed as enzyme residual activity at 10 uM by Kinomescan method relative to control
T1 sequence (Q8NEB9 whole entry, the tested form may be a part): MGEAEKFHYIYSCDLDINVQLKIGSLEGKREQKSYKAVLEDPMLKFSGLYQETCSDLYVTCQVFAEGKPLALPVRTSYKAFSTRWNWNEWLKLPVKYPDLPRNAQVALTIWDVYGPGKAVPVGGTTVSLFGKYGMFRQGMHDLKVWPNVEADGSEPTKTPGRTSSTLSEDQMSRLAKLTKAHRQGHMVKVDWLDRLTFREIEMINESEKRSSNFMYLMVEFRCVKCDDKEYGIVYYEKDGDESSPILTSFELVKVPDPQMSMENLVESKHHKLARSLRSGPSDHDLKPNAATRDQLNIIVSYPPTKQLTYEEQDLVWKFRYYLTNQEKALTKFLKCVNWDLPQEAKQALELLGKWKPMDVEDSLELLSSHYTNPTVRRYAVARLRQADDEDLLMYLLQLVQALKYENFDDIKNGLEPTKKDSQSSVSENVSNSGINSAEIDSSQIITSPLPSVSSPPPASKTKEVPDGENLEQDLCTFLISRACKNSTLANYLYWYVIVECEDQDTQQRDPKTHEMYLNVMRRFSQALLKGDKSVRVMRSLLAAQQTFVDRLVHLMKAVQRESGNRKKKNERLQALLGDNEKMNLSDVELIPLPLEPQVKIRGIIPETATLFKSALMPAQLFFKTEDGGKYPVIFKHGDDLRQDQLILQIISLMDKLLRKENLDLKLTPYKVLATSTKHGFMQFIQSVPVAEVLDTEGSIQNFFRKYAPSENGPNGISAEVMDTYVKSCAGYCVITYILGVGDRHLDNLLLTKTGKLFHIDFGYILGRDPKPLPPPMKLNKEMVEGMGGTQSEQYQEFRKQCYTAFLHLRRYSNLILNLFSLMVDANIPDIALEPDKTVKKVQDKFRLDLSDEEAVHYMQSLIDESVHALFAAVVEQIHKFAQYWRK

[8] = biological target: T2, Tyrosine-protein kinase JAK1 (Homo sapiens, UniProt P23458); experiment: Inhibition of wild-type human partial length JAK1 JH2 pseudokinase domain (R537 to D855 residues) expressed in mammalian expression system assessed as enzyme residual activity at 10 uM by Kinomescan method relative to control
T2 sequence (P23458 whole entry, the tested form may be a part): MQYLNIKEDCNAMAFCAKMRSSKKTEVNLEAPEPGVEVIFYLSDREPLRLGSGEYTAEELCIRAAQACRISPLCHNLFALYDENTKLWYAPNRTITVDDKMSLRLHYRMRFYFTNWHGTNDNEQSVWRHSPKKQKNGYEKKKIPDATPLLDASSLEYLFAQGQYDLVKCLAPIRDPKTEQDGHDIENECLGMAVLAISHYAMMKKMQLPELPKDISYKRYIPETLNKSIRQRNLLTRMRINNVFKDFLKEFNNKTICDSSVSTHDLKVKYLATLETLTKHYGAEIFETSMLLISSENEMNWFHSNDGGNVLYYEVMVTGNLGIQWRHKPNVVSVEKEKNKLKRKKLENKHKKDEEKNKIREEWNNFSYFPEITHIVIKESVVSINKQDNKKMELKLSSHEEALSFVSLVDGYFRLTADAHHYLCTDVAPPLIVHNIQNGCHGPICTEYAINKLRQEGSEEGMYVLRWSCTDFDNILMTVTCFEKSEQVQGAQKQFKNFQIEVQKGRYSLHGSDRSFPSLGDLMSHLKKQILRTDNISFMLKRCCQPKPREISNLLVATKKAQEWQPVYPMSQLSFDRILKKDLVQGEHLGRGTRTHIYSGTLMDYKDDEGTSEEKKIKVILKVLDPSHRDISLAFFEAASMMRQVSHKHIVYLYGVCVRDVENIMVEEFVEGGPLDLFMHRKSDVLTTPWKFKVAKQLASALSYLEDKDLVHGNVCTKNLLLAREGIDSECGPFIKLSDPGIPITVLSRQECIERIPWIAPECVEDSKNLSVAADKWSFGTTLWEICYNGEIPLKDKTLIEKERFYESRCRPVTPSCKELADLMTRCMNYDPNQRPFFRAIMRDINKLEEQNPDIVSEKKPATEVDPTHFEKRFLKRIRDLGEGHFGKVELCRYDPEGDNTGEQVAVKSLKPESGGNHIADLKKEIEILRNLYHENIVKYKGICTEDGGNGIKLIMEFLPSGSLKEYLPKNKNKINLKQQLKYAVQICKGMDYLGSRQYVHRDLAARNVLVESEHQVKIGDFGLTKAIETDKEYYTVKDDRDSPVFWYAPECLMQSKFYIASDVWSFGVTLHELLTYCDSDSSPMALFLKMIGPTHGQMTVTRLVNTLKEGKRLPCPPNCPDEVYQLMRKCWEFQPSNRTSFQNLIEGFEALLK

[9] = biological target: T3, Ephrin type-B receptor 6 (Homo sapiens) (UniProt O15197); experiment: Inhibition of wild-type human partial length EPHB6 (Q634 to P948 residues) expressed in mammalian expression system assessed as enzyme residual activity at 10 uM by Kinomescan method relative to control
T3 sequence (whole entry): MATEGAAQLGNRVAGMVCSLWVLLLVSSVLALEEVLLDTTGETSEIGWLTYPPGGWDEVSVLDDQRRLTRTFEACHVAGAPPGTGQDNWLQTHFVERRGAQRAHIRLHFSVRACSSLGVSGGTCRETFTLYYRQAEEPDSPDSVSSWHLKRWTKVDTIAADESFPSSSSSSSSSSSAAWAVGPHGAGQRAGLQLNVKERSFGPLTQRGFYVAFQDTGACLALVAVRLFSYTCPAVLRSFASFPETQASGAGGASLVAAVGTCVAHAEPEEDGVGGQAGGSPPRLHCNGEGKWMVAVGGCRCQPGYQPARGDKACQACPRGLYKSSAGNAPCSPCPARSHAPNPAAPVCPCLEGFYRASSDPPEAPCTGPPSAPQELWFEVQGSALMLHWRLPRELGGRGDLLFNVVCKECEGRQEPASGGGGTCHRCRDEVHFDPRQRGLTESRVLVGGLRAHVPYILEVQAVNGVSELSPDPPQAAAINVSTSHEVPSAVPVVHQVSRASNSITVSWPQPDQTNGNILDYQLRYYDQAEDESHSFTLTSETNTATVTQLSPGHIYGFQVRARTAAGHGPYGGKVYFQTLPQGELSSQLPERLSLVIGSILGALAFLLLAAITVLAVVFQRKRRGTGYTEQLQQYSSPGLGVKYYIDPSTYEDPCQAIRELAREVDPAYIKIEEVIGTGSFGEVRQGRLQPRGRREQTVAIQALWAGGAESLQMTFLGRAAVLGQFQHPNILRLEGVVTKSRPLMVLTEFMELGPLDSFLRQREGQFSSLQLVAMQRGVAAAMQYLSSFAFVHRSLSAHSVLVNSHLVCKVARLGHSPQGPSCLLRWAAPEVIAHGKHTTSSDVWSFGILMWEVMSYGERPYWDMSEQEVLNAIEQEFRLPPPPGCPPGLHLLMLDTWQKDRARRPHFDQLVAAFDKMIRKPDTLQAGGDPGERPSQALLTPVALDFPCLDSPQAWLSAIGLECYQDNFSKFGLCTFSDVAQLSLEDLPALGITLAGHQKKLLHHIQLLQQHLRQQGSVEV

[10] = biological target: T1, Phosphatidylinositol 3-kinase catalytic subunit type 3; experiment: Binding affinity to wild-type human partial length PIK3C3 (S282 to H879 residues) expressed in mammalian expression system at 10 uM by Kinomescan method relative to control
[11] = species: Homo sapiens; experiment: Ratio for inhibition of wild-type human partial length TYK2 JH2 pseudokinase domain (G556 to D888 residues) expressed in mammalian expression system at 10 uM by Kinomescan method relative to control to inhibition of wild-type human partial length JAK1 JH2 pseudokinase domain (R537 to D855 residues) expressed in mammalian expression system at 10 uM by Kinomescan method relative to control
[12] = biological target: T4, Dual specificity mitogen-activated protein kinase kinase 5 (Homo sapiens) (UniProt Q13163); experiment: Inhibition of wild-type human partial length MEK5 (L98 to P448 residues) expressed in mammalian expression system assessed as enzyme residual activity at 10 uM by Kinomescan method relative to control
T4 sequence (whole entry): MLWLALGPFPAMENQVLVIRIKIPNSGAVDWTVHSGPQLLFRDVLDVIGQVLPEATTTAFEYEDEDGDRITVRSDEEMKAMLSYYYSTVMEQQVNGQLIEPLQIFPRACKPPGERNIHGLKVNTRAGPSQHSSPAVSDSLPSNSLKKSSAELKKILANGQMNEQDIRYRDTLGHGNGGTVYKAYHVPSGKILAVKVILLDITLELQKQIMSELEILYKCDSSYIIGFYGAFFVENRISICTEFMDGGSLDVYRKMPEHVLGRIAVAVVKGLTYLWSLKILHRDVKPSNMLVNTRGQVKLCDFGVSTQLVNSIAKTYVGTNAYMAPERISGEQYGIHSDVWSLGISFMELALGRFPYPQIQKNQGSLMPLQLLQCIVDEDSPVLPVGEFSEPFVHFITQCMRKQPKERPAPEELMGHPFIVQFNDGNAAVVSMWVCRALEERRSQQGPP

[13] = biological target: T2, Tyrosine-protein kinase JAK1; experiment: Binding affinity to wild-type human partial length JAK1 JH2 pseudokinase domain (R537 to D855 residues) expressed in mammalian expression system at 10 uM by Kinomescan method relative to control

| Structure (SMILES) | EC50 [2] [nM] | Activity [3] | EC50 [5] [nM] | also measured |
| --- | --- | --- | --- | --- |
| CN1CCN(CCOc2ccc(-c3cnc4c(-c5ccccc5F)cnn4c3)cc2)CC1 | 520 | Active |  | Ratio EC50 [1]: 3; Ratio EC50 [4]: 2 |
| Fc1cccc(-c2cnn3cc(-c4ccc(OCCN5CCCCC5)cc4)cnc23)c1 | 1200 | Active | 2200 | Activity [6]: < 10%; Activity [7]: 100%; Activity [8]: 41%; Activity [9]: < 10% |
| FC(F)(F)c1ccc(-c2cnn3cc(-c4ccc(OCCN5CCCCC5)cc4)cnc23)cc1 | 2300 | Active | 1600 |  |
| CN1CCN(CCOc2ccc(-c3cnc4c(-c5ccc(F)cc5)cnn4c3)cc2)CC1 | 1100 | Active |  |  |
| c1ccc2sc(-c3cnn4cccnc34)nc2c1 | 900 | Active |  | Kd [10]: 410 nM; Ratio [11]: 6; Activity [6]: 5%; Activity [12]: 3.9%; Activity [7]: 0.9%; Activity [8]: 0.8%; Activity [9]: 9.9%; Kd [13]: 550 nM |
| CN1CCN(CCOc2ccc(-c3cnc4c(-c5ccc(C(F)(F)F)cc5)cnn4c3)cc2)CC1 | 2900 | Active |  |  |
| Fc1ccc(-c2cnn3cc(-c4ccc(OCCN5CCCCC5)cc4)cnc23)cc1 | 930 | Active | 3600 |  |
| Fc1cccc(-c2cnn3cc(-c4ccc(OCCN5CCCCC5)cc4)cnc23)c1F | 1400 | Active | 4300 |  |
| Fc1ccccc1-c1cnn2cc(-c3ccc(OCCN4CCCCC4)cc3)cnc12 | 2700 | Active | 2800 |  |
| c1cc(-c2cnn3cc(-c4ccc(OCCN5CCCCC5)cc4)cnc23)ccn1 [DORSOMORPHIN] | 900 to 1100 |  | 4900 |  |
| CN1CCN(CCOc2ccc(-c3cnc4c(-c5cccc(F)c5)cnn4c3)cc2)CC1 | 950 | Active |  |  |
| CN1CCN(CCOc2ccc(-c3cnc4c(-c5cccc(F)c5F)cnn4c3)cc2)CC1 | 840 | Active |  |  |
